The source of these data is ChEMBL document CHEMBL5308504, “Tm Shift (DSF) assay results for EUbOPEN Chemogenomics Library” (2023).

Assay [1] has as its target T1, Peregrin (Homo sapiens) (UniProt P55201).
T1 sequence (whole entry): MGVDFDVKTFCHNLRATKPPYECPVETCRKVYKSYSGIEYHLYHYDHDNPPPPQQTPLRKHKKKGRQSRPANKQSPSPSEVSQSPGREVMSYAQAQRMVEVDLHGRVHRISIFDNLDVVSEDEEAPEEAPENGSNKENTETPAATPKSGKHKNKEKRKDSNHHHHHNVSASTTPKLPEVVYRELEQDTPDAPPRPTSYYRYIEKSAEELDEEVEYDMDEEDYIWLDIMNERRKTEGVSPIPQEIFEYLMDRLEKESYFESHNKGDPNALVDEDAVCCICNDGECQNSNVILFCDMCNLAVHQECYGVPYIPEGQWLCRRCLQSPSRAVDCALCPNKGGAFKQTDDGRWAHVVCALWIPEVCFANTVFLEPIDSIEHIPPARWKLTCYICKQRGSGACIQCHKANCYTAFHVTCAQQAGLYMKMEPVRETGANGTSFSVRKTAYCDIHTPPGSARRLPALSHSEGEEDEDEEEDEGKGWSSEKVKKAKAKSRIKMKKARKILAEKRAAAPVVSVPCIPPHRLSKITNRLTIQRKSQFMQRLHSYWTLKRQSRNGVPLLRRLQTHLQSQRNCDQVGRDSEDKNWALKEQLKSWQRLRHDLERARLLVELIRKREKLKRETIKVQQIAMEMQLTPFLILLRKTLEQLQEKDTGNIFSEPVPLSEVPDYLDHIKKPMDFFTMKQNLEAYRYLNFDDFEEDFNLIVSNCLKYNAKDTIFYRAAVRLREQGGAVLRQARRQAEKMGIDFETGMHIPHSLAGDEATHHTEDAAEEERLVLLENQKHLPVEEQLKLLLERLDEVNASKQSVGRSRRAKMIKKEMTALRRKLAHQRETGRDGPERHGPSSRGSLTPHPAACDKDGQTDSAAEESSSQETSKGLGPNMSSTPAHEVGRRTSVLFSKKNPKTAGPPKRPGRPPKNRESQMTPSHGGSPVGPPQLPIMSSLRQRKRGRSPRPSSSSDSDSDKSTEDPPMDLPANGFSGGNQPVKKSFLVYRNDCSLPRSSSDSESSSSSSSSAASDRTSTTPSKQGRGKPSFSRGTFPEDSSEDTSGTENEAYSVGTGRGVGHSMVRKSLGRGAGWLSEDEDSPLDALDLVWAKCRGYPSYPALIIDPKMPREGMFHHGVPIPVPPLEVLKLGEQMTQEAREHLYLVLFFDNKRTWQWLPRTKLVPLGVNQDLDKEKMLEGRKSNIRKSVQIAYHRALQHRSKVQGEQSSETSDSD
The note with it: Compound concentration 20.0 uM, Protein concentration 2.0 uM, Result type QC Liability.

For assay [2], the target named is Fibroblast growth factor receptor 3 (Homo sapiens) (UniProt P22607). The settings on record: Compound concentration 20.0 uM, Protein concentration 2.0 uM, Result type QC Liability.
Description: Thermal Shift Assay. Domain: start/stop: P449-E759

Where “and” joins values, the source holds several entries; their conditions need not be identical. Identical values can stand only once.

Sequence of Fibroblast growth factor receptor 3 (Homo sapiens) (P22607 23-806 limits assumed): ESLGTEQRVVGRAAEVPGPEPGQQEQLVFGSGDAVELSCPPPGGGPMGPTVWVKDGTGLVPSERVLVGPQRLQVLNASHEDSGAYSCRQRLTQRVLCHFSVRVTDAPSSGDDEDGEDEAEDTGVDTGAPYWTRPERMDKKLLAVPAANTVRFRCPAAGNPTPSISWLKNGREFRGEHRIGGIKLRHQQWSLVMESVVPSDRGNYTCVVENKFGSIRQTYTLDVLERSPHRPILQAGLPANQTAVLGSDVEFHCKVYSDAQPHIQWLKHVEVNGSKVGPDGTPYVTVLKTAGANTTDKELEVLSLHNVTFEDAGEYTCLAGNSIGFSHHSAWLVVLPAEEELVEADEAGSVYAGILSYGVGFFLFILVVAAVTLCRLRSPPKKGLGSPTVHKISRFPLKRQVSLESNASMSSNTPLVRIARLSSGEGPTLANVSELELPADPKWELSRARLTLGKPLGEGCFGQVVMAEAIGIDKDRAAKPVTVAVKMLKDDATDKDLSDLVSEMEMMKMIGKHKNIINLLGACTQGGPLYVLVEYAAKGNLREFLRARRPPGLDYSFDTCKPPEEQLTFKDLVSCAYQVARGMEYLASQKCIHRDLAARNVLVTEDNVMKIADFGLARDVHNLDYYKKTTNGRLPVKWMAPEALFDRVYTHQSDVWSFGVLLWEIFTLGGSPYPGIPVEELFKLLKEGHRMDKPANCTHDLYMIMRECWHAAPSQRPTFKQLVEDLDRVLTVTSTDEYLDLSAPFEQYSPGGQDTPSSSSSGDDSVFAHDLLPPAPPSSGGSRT

Take `CC(C)N(C(=O)C1CCOCC1)c1cc(F)c(Oc2ncc(Cn3nccn3)cc2C(F)(F)F)cc1C(=O)O`: the ΔTm was -3.32 °C in assay [1] and 0.39 °C in assay [2].
Taken in the same sequence, the figures for `CNCc1ccc(-c2cc(-c3nc(-c4ccc(S(=O)(=O)C(C)C)cc4)cnc3N)on2)cc1` were -0.8 °C and -1.35 °C.
As for `COP(=O)(CCC(N)C(=O)O)Oc1cccc(CC(=O)O)c1` (stereo not given), the ΔTm in assay [1] is -1.49 °C; in assay [2], 0.51 °C.
On to `CCCCCNC(=O)N1CCC(CN(Cc2ccc(Cl)cc2)Cc2ccc([N+](=O)[O-])s2)C1` (stereo not given), for which the values for the ΔTm in assay [1] and in assay [2] were -0.19 °C and 0.77 °C, respectively.
For `Cc1cc(OCc2nc3ccccc3s2)ccc1NC(=O)Nc1ccc(Cl)c(Cl)c1`, the ΔTm in assay [1] was -2.19 °C; in assay [2] it was 0.81 °C.
The corresponding values for `O=C(O)c1ccc2c(c1)nc(NCc1ccccc1)c1ncncc12` are -1.74 °C and 0.75 °C.
For `Cc1cnc(Nc2ccc(C(=O)N3CCN(C)CC3)cc2)nc1N[C@@H]1CCC[C@@H]1C(N)=O`, the ΔTm in assay [1] was -1.57 °C; in assay [2] it was 7.25 °C.
Taken in the same sequence, the figures for `CS(C)(=O)=Nc1ccc(-c2ccc(-c3nc4[nH]c(O[C@@H]5CO[C@H]6[C@@H]5OC[C@H]6O)nc4cc3Cl)cc2)cc1` were -3.2 °C and 0.49 °C.
With `C[S+]([O-])c1ccc(-c2nc(-c3cccc(I)c3)c(-c3ccncc3)[nH]2)cc1` (stereo not given), the ΔTm in assay [1] is -1.44 °C; in assay [2], -1.51 °C.
Taken in the same sequence, the figures for `CN1C(=O)Cc2ccc(-c3ccc(C[C@@H](C#N)NC(=O)[C@@H]4N[C@H]5CC[C@@H]4C5)c(F)c3)cc21` were 1.91 °C and 0.66 °C.
With `CP(C)(=O)c1ccc(CNC(=O)C2CCN(S(=O)(=O)c3cc(Cl)cc(Cl)c3)CC2)cc1`, the ΔTm is -3.29 °C in assay [1] and 0.53 °C in assay [2].
The corresponding values for `CCN1CCN(Cc2ccc(Nc3ncc(F)c(-c4cc(F)c5nc(C)n(C(C)C)c5c4)n3)nc2)CC1` are -1.26 °C and 3.23 °C.
Taken in the same sequence, the figures for `CC(C)(C)OC(=O)CN(Cc1ccc(Cl)cc1)Cc1ccc([N+](=O)[O-])s1` were -0.13 °C and 0.88 °C.
For `O=C1CCCc2[nH]c(-c3ccnc(NCC4CC4)c3)c(Nc3ccccc3)c21`, the ΔTm was -3.57 °C in assay [1] and 0.77 °C in assay [2].
Taken in the same sequence, the figures for `O=C1NC(=NCc2cccs2)SC1=Cc1ccc2ncccc2c1` were -1.16 °C and 0.61 °C.
The corresponding values for `C[C@@H]1CCNC(=O)c2cc3ccc(C(=O)Nc4nc5ccccc5n4CCCN(C)C)cc3n21` are -2.35 °C and 2.76 °C.
For `N#CN1CC[C@@H](C(=O)Nc2nc3c(s2)CN(C(=O)CN=[N+]=[N-])CC3)C1`, the ΔTm in assay [1] was -1.31 °C; in assay [2], 0.98 °C.
As for `Cc1cc(-c2nc(-c3ccc(OC(F)(F)F)cc3)no2)nn1Cc1ccnc(N2CCN(C3CC3)CC2)c1`, the ΔTm is -10.7 °C in assay [1] and 1.28 °C in assay [2].
The corresponding values for `COc1ccc2c(O[C@@H]3C[C@H]4C(=O)N[C@]5(C(=O)O)CC5/C=C\CCCCC[C@H](NC(=O)OC5CCCC5)C(=O)N4C3)cc(-c3csc(NC(=O)C(C)C)n3)nc2c1C` (stereo not given in full) are -1.17 °C [middle of 4 runs] and 1.07 °C [middle of 4 runs].
On to `NCC1CCC(CNc2nc(NCc3ccccc3OC(F)(F)F)ncc2[N+](=O)[O-])CC1` (stereo not given), for which the ΔTm was 0.06 °C in assay [1] and 0.5 °C in assay [2].
The corresponding values for `CS(=O)(=O)NC(=O)CCC/C=C\C[C@H]1C(=O)C[C@@H](O)[C@@H]1/C=C/[C@@H](O)COc1ccccc1` are -1.73 °C and 0.49 °C.
The corresponding values for `Cc1[nH]c2c(N3CCCCC3)c(-c3ccccc3)nn2c(=O)c1-c1ccc(O)cc1` are -2.87 °C and 0.67 °C.
On to `O=C1Nc2nc(-c3c(O)cccc3OCC3CC3)cc([C@@H]3CCCNC3)c2CO1`, for which the ΔTm in assay [1] is -2.51 °C; in assay [2] it was 1.04 °C.
As to `O=C(O)CCCc1cc2cc(Cl)ccc2n1S(=O)(=O)c1ccc2ncsc2c1`, the ΔTm in assay [1] is -1.78 °C; in assay [2], 0.8 °C.
The corresponding values for `C=CC1C[C@]1(NC(=O)[C@@H]1C[C@@H](Oc2cc(-c3csc(NC(=O)C(C)C)n3)nc3c(Br)c(OC)ccc23)CN1C(=O)[C@@H](NC(=O)OC1CCCC1)C(C)(C)C)C(=O)O` (stereo not given in full) are -2.59 °C and 1.41 °C.
Taken in the same sequence, the figures for `CC(=O)Nc1nc(C)c(S(=O)(=O)Nc2ccc(C(O)(C(F)(F)F)C(F)(F)F)cc2)s1` were -0.9 °C and 0.63 °C.
The corresponding values for `CC(C(=O)Nc1cc(C#N)ccc1CCCC(=O)O)c1ccc(F)c2ccccc12` (stereo not given) are -2.92 °C and 0.51 °C.
Regarding `O=C(NCCS(=O)(=O)c1ccc(C(F)(F)F)cn1)c1ccc(Cl)cc1`, the ΔTm in assay [1] is -0.99 °C; in assay [2] it was 0.38 °C.
On to `COc1cc(O)c(C(CC(=O)N2C[C@H](C)C[C@H](C)C2)c2ccc3c(c2)OCO3)c(OC)c1` (stereo not given in full), for which the ΔTm in assay [1] stood at 1.95 °C; in assay [2], 0.97 °C.
Taken in the same sequence, the figures for `Cc1cccc(-c2[nH]c(CNc3ccccc3F)nc2-c2ccc3ncnn3c2)n1` were 0.68 °C and 4.08 °C.
Taken in the same sequence, the figures for `Cc1c(-c2c(F)cc(C(N)=O)c3[nH]c4c(c23)CC[C@H](C(C)(C)O)C4)cccc1-n1c(=O)c2cccc(F)c2n(C)c1=O` were -3.49 °C and -3.27 °C.
As for `Cc1nnc2n1-c1sc3c(c1C(c1ccccc1Cl)=NC2)C[C@H](C(=O)N1CCOCC1)C3`, the ΔTm in assay [1] was -1.51 °C; in assay [2], 0.59 °C.
The corresponding values for `CC1CCN(C(=O)[C@@H](CCn2cccc2C#N)NS(=O)(=O)c2cccc3[nH]ccc23)CC1` are -3.16 °C and 0.36 °C.
On to `COc1cc2nc(C)nc(N[C@H](C)c3cc(N)cc(C(F)(F)F)c3)c2cc1O[C@H]1CCOC1`, for which the values for the ΔTm in assay [1] and in assay [2] were -3.07 °C and 0.66 °C, respectively.
As for `NC(=O)c1ccc(-c2nc(-c3ccc4c(c3)OCCO4)c(-c3ccccn3)[nH]2)cc1`, the ΔTm in assay [1] came out at 0.84 °C; in assay [2] it was 1.37 °C.
The corresponding values for `COCCc1ccc(-c2c(C)nc3c(N4CCOCC4)ccnn23)cn1` are -2.19 °C and 1.27 °C.
As for `CCn1ccc(Nc2ncc3c(n2)-c2c(nn(C)c2-c2ccc(-c4cnn(C)c4)cc2Cl)CC3)n1`, the ΔTm is -0.93 °C in assay [1] and 2.93 °C in assay [2].
Taken in the same sequence, the figures for `N=C(N)NCCC[C@H](NC(=O)CC1(CC(=O)N2CCN(C(c3ccccc3)c3ccccc3)CC2)CCCC1)C(=O)NCc1ccccc1` were -4.91 °C and 0.22 °C.
With `C[S+](C)[O-]`, the ΔTm in assay [1] is 0 °C (2×) and -0.4 °C; in assay [2] it was 0 °C (2×) and 0.62 °C.
Regarding `COc1cccc(Cn2cc(C(=O)Nc3ccc(C)c(S(=O)(=O)N4CCOCC4)c3)c(-c3ccc(C)cc3)n2)c1`, the results for the ΔTm in assay [1] and in assay [2] were 4.54 °C and 3.17 °C, respectively.
Consider `C#Cc1cnc2[nH]cc(-c3cccc4c3CCN4C(=O)[C@@H]3CCCN3C#N)c2c1`, for which the ΔTm in assay [1] is -12.9 °C; in assay [2], 3.57 °C.
`CC(C)N(CCCCOCC(=O)O)c1cnc(-c2ccccc2)c(-c2ccccc2)n1`: the results for the ΔTm in assay [1] and in assay [2] were -4.18 °C and -0.51 °C, respectively.
Taken in the same sequence, the figures for `CCCCCCCC/C=C\CCCCCCCC(=O)NCCO` were -0.91 °C and 1.23 °C.
The corresponding values for `Cc1c(CCC(=O)O)cccc1NC(=O)[C@@H](c1ccc(-c2cncc(Cl)c2)c(F)c1)C1CCCC1` are -4.03 °C and 0.03 °C.
The corresponding values for `Cc1nsc(Nc2cnc(C(F)(F)F)cn2)c1C(=O)Nc1ccc(O[C@H]2CCCN(CC(F)(F)F)C2)nc1` are -3.38 °C and 1.39 °C.
With `CCCn1cc(-c2cc(C3C(=O)N(CC)c4ccc(C(F)(F)F)cc4N(c4ccccc4)C3=O)cc(OC)c2O)cn1` (stereo not given), the ΔTm in assay [1] was -1.21 °C; in assay [2], 0.46 °C.
The corresponding values for `Nc1ncc2c(n1)-c1c([nH]c3ccc(C4=CCOCC4)cc13)CCC2` are -2.26 °C and 1.34 °C.
Taken in the same sequence, the figures for `COc1cc(C(=O)NC2CCN(C)CC2)ccc1Nc1ncc2c(n1)N(C1CCCC1)CC(F)(F)C(=O)N2C` were 1.14 °C and 0.42 °C.
Regarding `Cc1csc(-c2nnc(Nc3ccc(Oc4ncccc4-c4ccnc(N)n4)cc3)c3ccccc23)c1`, the ΔTm is -5.77 °C in assay [1] and -1.73 °C in assay [2].
Taken in the same sequence, the figures for `CNc1nc(-c2cc(C(=O)N3CCN(Cc4ccc(Cl)cc4)CC3)c(Cl)cn2)cs1` were -1.62 °C and 0.37 °C.
